Results as given in patent US6919464B1, “Synthetic derivatives of 21-butenyl and related spinosyns” (Dow AgroSciences LLC, priority 2001, dated 2005).

Tested on: Heliothis virescens
Test: Tobacco Budworm (Heliothis virescens) feeding assay, cotton leaf-dip
Assay type: in vivo
Settings: rate 600 ppm, second instar larvae, 96 h

With `CCCC[C@H]1CCC[C@H](OC2CC[C@H](N(C)C)[C@@H](C)O2)[C@@H](C)C(=O)C2=CC3C4C[C@H](O[C@@H]5O[C@@H](C)[C@H](OC)[C@@H](O)[C@H]5OC)CC4CCC3C2CC(=O)O1` (stereo partly shown) [Compound B12, 5,6,22,23-tetrahydro-for-(3′-O-desmethylrham)-I] the mortality at 600 ppm was 100%.
